We go through four compounds from patent US8410168B2, “Methods and compositions for treating ophthalmic conditions with retinyl derivatives” (Acucela, Inc., priority 2004, dated 2013).

In one data set the target is TTR binding to RBP (Homo sapiens, UniProt P02753). Put plainly: Size exclusion study of TTR binding to RBP. Conditions: 10 μM RBP, 50 μM MPR, 10 μM TTR. The protocol: Apo-RBP at 10 μM was incubated with 50 μM of MPR in PBS at room temperature for 1 hour. 10 μM of TTR was then added to the solution, and the mixture was incubated for another hour at room temperature. […] of the sample mixtures with and without TTR addition were analyzed by BioRad Bio-Sil SEC 125 Gel Filtration Column (300×7.8 mm). In control experiments, atROL-RBP and atROL-RBP-TTR mixture were analyzed in the same manner.
In general terms: SEC sorts molecules by how far they enter the pores of the column.

For data set [1], the target named is T1, CRALBP (Homo sapiens, UniProt P12271).
T1 construct: made in house
Kind of data set: Size exclusion chromatography study of binding to CRALBP. To be noted: 4 μM apo-CRALBP, 8 μM ligand. On the procedure:
Apo-CRALBP at 4 μM was incubated with 8 μM of 11cRAL, atRAL or HPR in PBS at room temperature for 1 hour. In control experiment, equivalent volume of DMSO was added to the CRALBP solution. 50 μl of each sample mixture was analyzed by BioRad Bio-Sil SEC125 Gel Filtration Column (300×7.8 mm).

Another data set addresses RBP (Homo sapiens, UniProt P02753). Kind of data set: Fluorescence quenching study of MPR binding to RBP. On the procedure: Apo-RBP at 0.5 μM was incubated with 0, 0.25, 0.5, 1 and 2 μM of MPR in PBS at room temperature for 1 hour, respectively. As controls, the same concentration of Apo-RBP was also incubated with 1 μM of HPR or 1 μM of atROL. All mixtures contained 0.2% Ethanol (v/v). The emission spectra were measured between 290 nm to 550 nm with excitation wavelength at 280 nm and 3 nm bandpass.

For another data set, the system named is ABCA4−/− mice. Put plainly: HPR drug holiday after 28 days of treatment. The class given is in vivo, mouse. To be noted: 28-day drug holiday. The protocol:
HPR (10 mg/kg in DMSO) was administered to ABCA4−/− mice daily for a period of 28 days. Control ABCA4−/− mice received only DMSO for the same period. […] Importantly, the observed reductions in lipofuscin autofluorescence persist long after cessation of HPR therapy. HPR (10 mg/kg), or DMSO, administration was discontinued following 28 days of treatment and re-evaluated A2E and precursor levels after 2 weeks and after 4 weeks.
We examined eyecup extracts by HPLC and employed detection by absorbance and fluorimetry. Identity of the indicated peaks was confirmed by on-line spectral analysis and by co-elution with authentic standards. […] Further, the A2E and precursor (A2PE-H2 and A2PE) levels after a […] or 28-day drug holiday remained at or near the levels immediately following 28 days of treatment (i.e., ca. 50% reduction relative to control), although after the 28-day drug holiday, the amount of A2E and precursor (A2PE-H2 and A2PE) had increased by a few percentage points relative to the 12-day drug holiday levels. […] It is clear that peak fluorescence tracks with the abundance of A2E, A2PE and A2PE-H2.
This effect cannot be attributed to long-term reductions in serum retinol as serum retinol had returned to baseline 48 hours following the last HPR dose. […] Furthermore, HPR reduces serum retinol levels, which leads to a reduction in the level of retinol in the eyes of treated animals. Once the level of retinol has been reduced in the eye, there is a time lag in the subsequent increase in retinol levels in the eye. Alone or in combination, the production of A2E, A2PE and A2PE-H2 in the eye remains low despite the absence of HPR in the serum or the eye.

Data set [2] concerns the target T1, CRALBP. Put plainly: Fluorescence quenching study of binding to CRALBP. The protocol: Apo-CRALBP at 0.5 μM was incubated with 1 μM of 11-cis Retinal (11cRAL), all-trans retinal (atRAL) or N-4-hydroxyphenyl retinamide (HPR) in PBS at room temperature for 1 hour. As a control, same volume of DMSO was added to the Apo-CRABLP solution. The emission spectra were measured between 290 nm to 500 nm with excitation wavelength at 280 nm and 2 nm bandpass (See FIG. 7).
Quenching of CRALBP protein fluorescence with 11-cis retinal (11cRAL). The fluorescence emission of recombinant apo-CRALBP (0.5 μM) was measured using 280 nm excitation (“no 11cRAL”).
Quenching of CRALBP protein fluorescence with HPR. The data shown were obtained using an experimental design identical to that described above. The fluorescence emission of recombinant apo-CRALBP was measured using 280 nm excitation (“no HPR”).
We performed an analysis of the dissociation constant (KD) for 11cRAL and HPR binding to apo-CRALBP (see FIG. 15). […] This calculation is based upon the ligand concentration necessary to fully quench the protein fluorescence. The data reveal that both 11cRAL and HPR quench apo-CRALBP fluorescence maximally at ˜1.5 μM. Thus, although apo-CRALBP is described as an 11 cis-specific retinoid binding protein, it appears to bind HPR as well.

Another data set has as its target T2, apo-CRALBP (Homo sapiens, UniProt P12271).
T2 construct: made in house
Put plainly: Ni+ affinity column and spectroscopic analysis of binding to CRALBP. Conditions: 10 μM apo-CRALBP, 20 μM ligand. The protocol: In order to confirm data obtained during fluorescence analysis of HPR binding to CRALBP, a second analysis was performed using affinity chromatography and spectroscopic analysis. The recombinant apo-CRALBP was constructed with a histidine tag which is utilized to purify the protein on a Ni+ affinity column following expression cloning. Here, we utilized this feature of apo-CRALBP to specifically “trap” the protein and any protein-ligand species for spectroscopic analysis. Two binding mixtures were prepared containing apo-CRALBP (10 μM) and either 11cRAL (20 μM) or HPR (20 μM). In control experiments for the analysis of non-specific ligand binding onto the affinity matrix, we prepared two additional mixtures containing only 11cRAL (20 μM) or HPR (20 μM) in binding buffer. The binding mixtures were passed through separate Ni+ affinity columns and the columns were washed extensively to elute unbound protein and ligand. Following the addition of elution buffer, the eluted fractions were analyzed by spectroscopy. […] Instead, two absorption maxima are seen: one at 280 nm and a second at 360 nm, which is attributable to the absorption of HPR (see FIG. 14).

The Kd is the equilibrium constant for the complex coming apart.

T1 sequence (P12271 whole entry, species assumed): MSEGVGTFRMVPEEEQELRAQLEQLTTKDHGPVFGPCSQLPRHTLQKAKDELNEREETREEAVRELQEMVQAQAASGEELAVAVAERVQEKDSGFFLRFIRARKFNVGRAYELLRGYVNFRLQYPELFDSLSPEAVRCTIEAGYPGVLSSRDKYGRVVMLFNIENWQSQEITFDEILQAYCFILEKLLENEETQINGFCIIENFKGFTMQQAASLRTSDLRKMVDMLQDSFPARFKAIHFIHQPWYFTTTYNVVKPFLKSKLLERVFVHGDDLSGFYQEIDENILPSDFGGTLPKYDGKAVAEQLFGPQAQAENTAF
T2 sequence (P12271 whole entry, species assumed): as above

With `CC1=C(/C=C/C(C)=C/C=C/C(C)=C/CO)C(C)(C)CCC1` [atROL, all-trans retinol], the “binding of ligand-RBP to TTR” value at TTR binding to RBP is reported as “binds to TTR”.
For `CC1=C(/C=C/C(C)=C/C=C/C(C)=C/C=O)C(C)(C)CCC1` [atRAL, all-trans retinal], at CRALBP [1], the “ligand bound to CRALBP (monomer elution peak absorbance)” value is on record as “Less than half of the atRAL is bound to CRALBP”.
Take `COc1ccc(NC(=O)\C=C(C)/C=C/C=C(C)\C=C\C2=C(C)CCCC2(C)C)cc1` (stereo in doubt) [MPR, N-(4-methoxyphenyl)retinamide]: on RBP (0.5 μM apo-RBP, 0-2 μM MPR), the “quenching of RBP fluorescence” value is “concentration-dependent quenching”. Moreover, on RBP (0.5 μM of RBP), the “concentration at which quenching of RBP fluorescence saturated” value worked out at 1 µM. Besides, on RBP (1 μM controls), the “degree of RBP fluorescence quenching compared with other ligands” value is “smaller than those by atROL and HPR”. Also, the “binding of ligand-RBP to TTR” value on TTR binding to RBP was “did not bind to TTR”. Moreover, the “detection in the eyes after drug holiday” value with ABCA4−/− mice is “unable to detect”.
For `CC1=C(/C=C/C(C)=C/C=C/C(C)=C/C=O)C(C)(C)CCC1` [11cRAL, 11-cis retinal], the “concentration of maximal quenching of apo-CRALBP fluorescence” value at CRALBP [2] is approximately 1.5 µM. The “quenching of CRALBP fluorescence emission” value on CRALBP [2] (0.5 μM apo-CRALBP, 1 μM ligand, 1 hour, vs DMSO) is “highest degree of quenching”. For the same compound, the “concentration dependence of CRALBP protein fluorescence quenching” value at CRALBP [2] (0.5 μM recombinant apo-CRALBP, 280 nm excitation) is listed as “concentration dependent manner”. The Kd on CRALBP [2] (transformation of fluorescence quenching data, read-out: dissociation constant (KD) for binding to apo-CRALBP) was approximately 30 nM. Further, the “ligand bound to CRALBP (monomer elution peak absorbance)” value on CRALBP [1] was “a majority of the CRALBP is bound with ligand”. Further, the “binding to apo-CRALBP by absorption spectra of eluted fraction” value at apo-CRALBP is “bound to CRALBP”.
